Usually melting point stands for the temperature of the solid-liquid transition.

Structures can show the parent of a compound that is named as a salt.

Series [1] addresses T1, catalytic domain of human stromelysin (Hsln) (Homo sapiens, UniProt P08254).
T1 construct: The catalytic domain of human stromelysin (Hsln) was obtained by expression and purification of a C-terminally truncated prostromelysin-1; made in house; host or cells: E. coli BL21
Description: Fluorometric MCA-peptide hydrolysis assay, stromelysin (Hsln). The following applies: apparent Ki; 10 μM MCA peptide substrate, 37° C., pH 7.5; read-out: Hsln (Ki,app). The series is classed as biochemical. The method, then: The catalytic domain of human stromelysin (Hsln) was obtained by expression and purification of a C-terminally truncated prostromelysin-1 from E. coli host BL21 (see Marcy et al. Biochem., 1991, 30, 6476). The subsequent activation of the mature form (Hsln) was completed with 2 mM APMA for 1 hour at 37° C., followed by separation using a sizing column.
(§1) Assays were performed in assay buffer (50 mM Tricine pH 7.5, 200 mM sodium chloride, 10 mM calcium chloride, 0.5 mM zinc acetate containing 2% dimethyl sulfoxide (DMSO)) once the substrate and inhibitor were diluted into it. Stock solutions of inhibitors were prepared in 100% DMSO. Stock solutions of the substrate were prepared in 100% DMSO at a concentration of 6 mM.
(§2) The assay method was based on the hydrolysis of MCA-Pro-Leu-Gly-Leu-DPA-Ala-Arg-NH2 (American Peptide Co.) at 37° C. (see Knight, C. G. et al., FEBS, 1992, 296, 263-266). The fluorescence changes were monitored with a Perkin-Elmer LS-50B fluorimeter using an excitation wavelength of 328 nm and an emission wavelength of 393 nm. The substrate concentration used in the assays was 10 μM. The inhibitor was diluted into the assays from a solution in 100% DMSO, and controls substituted an equal volume of DMSO so that the final DMSO concentration from inhibitor and substrate dilution in all assays was 2%. […] Proper determination of steady-state rates of substrate cleavage required assay lengths of 60 minutes to allow for complete equilibration of the enzyme-inhibitor complex.
(§3) The Km for the MCA peptide substrate with the matrix metalloproteinases is quite high and exceeds its solubility under assay conditions. Consequently, the apparent Ki (Ki,app) was determined to describe the strength of inhibition. However, in this case, Ki,app would be essentially equal to Ki since [S]<<Km. For the determination of Ki,app, the concentration of the inhibitor was varied at a constant and low concentration of substrate and the steady-state rates of fluorescence change determined. In most cases absorptive quench due to the presence of ligand was not observed. For slow-binding inhibitors, onset of inhibition curves were collected for at least 45 minutes so that equilibrium was established. Steady-state rates of fluorescence change were obtained by fitting a curve to an equation for a single exponential decay containing a linear phase. The fitted value of the linear phase was taken as the steady-state rate. The steady-state rates were fitted to the Michaelis equation describing competitive inhibition by non-linear methods. Data resulting from tight-binding inhibition was analyzed, and Ki,app determined by fitting the data to the tight-binding equation of Morrison (Biochem. Biophys. Acta, vol. 185, pp. 269-286 (1969)) by non-linear methods.

Series [2] has as its target T2, Human matrilysin (Matr) (Homo sapiens, UniProt P09237).
T2 construct: the catalytic domain was liberated by treatment with 2 mM APMA at 37° C. for 2 hours; ubiquitin (cleaved yes); made in house; host or cells: E. coli
T2 sequence (P09237 95-267): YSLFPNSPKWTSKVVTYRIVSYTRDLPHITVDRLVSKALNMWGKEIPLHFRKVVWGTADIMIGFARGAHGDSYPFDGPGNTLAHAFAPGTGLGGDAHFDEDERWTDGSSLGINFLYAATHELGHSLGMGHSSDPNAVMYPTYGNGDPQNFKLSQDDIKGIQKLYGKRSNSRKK
Description: Fluorometric MCA-peptide hydrolysis assay, matrilysin (Matr). It counts as biochemical. The following applies: apparent Ki; 10 μM MCA peptide substrate, 37° C., pH 7.5; read-out: Matr (Ki,app). As to the method:
Human matrilysin (Matr) was expressed in E. coli as a fusion protein with ubiquitin. After purification of the matrilysin/ubiquitin fusion from inclusion bodies, the catalytic domain was liberated by treatment with 2 mM APMA at 37° C. for 2 hours. Final purification was complete using copper chelate chromatography.
as §1, §2, §3

Series [3] has as its target T3, human progelatinase A (GelA), catalytic and fibronectin-like portion (Homo sapiens, UniProt P08253).
T3 construct: The catalytic and fibronectin-like portion of human progelatinase A (GelA) was expressed as a fusion protein with ubiquitin; ubiquitin; made in house; host or cells: E. coli
Description: Fluorometric MCA-peptide hydrolysis assay, gelatinase A (GelA). The series is classed as biochemical. The settings on record: apparent Ki; 10 μM MCA peptide substrate, 37° C., pH 7.5. As to the method: The catalytic and fibronectin-like portion of human progelatinase A (GelA) was expressed as a fusion protein with ubiquitin in E. Coli. Assays were carried out on autocatalytically activated material.
as §1, §2, §3

The target of series [4] is T4, human collagenase-3 (Coll3) (Homo sapiens, UniProt P45452).
T4 construct: the catalytic domain was liberated by treatment with 2 mM APMA at room temperature overnight; ubiquitin (N, cleaved yes); made in house; host or cells: E. coli
Description: Fluorometric MCA-peptide hydrolysis assay, collagenase-3 (Coll3). The series is classed as biochemical. The settings on record: apparent Ki; 10 μM MCA peptide substrate, 37° C., pH 7.5; read-out: Coll3 (Ki,app). The method, then:
The propeptide and catalytic domain of human collagenase-3 (Coll3) was expressed in E. coli as an N-terminal fusion protein with ubiquitin. After purification of the fusion from inclusion bodies, the catalytic domain was liberated by treatment with 2 mM APMA at room temperature overnight. Final purification was completed using copper chelate chromatography.
as §1, §2
as §3, with “In most cases absorptive quench due to the presence of ligand was not observed.” left out

T3 sequence (P08253 110-465 limits assumed): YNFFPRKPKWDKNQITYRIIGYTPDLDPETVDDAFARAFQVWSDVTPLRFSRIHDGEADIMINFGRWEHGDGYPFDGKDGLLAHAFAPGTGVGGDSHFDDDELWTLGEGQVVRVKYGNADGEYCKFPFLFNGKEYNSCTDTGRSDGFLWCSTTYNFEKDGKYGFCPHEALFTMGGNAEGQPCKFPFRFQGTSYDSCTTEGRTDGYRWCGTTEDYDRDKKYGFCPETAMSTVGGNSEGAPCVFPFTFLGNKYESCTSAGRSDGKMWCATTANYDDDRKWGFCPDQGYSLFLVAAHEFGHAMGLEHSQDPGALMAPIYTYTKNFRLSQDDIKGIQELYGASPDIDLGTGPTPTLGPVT
T1 sequence (P08254 100-272 limits assumed): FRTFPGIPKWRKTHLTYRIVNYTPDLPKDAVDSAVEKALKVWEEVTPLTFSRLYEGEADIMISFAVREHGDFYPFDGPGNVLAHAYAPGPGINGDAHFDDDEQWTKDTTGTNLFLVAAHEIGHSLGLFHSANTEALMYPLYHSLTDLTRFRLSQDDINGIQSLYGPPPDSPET

`CC(C)(C)[C@@H](CO)NC(=O)C(CC(=O)O)n1cnc(-c2ccc(-c3ccccc3)cc2)c1` (mixture of isomers) [Example 18(b), 3(RS)-(3-Biphenyl-4-yl-1H-imidazol-1-yl)-N-(2,2-dimethyl-1(S)-hydroxymethylpropyl)succinamic Acid] yielded a melting point of 145 to 150 °C. In addition, the Ki in series [1] came to 3000 nM. For the same compound, the Ki in series [2] is over 100000 nM.

`NC(=O)c1ccc(-c2ccc(-c3ccn([C@H](CC(=O)O)C(=O)N[C@H](CO)Cc4ccccc4)c3)cc2)cc1` [Example 4(b), N-(1-Benzyl-2-hydroxyethyl)-3(R)-[3-(4′-carbamoylbiphenyl-4-yl)-1H-pyrrol-1-yl]succinamic Acid] registered a melting point of 218 to 220 °C. Further, in series [1], the Ki was 23 nM. For the same compound, the Ki in series [2] is 1520 nM. In series [3], the GelA (Ki,app) came to 1.11 nM. In addition, the Ki in series [4] was determined as 2.13 nM.

In the case of `CC(C)(C)[C@H](NC(=O)C(CC(=O)O)c1ccsc1)C(=O)Nc1ccncc1` (stereo in doubt) [Example 17(c), N-[2,2-Dimethyl-1(S)-(pyridin-4-ylcarbamoyl)-propyl]-3(R)-thien-3-yl-succinamic Acid], the melting point was 205 °C (dec.). The Ki in series [1] turned out to be 935 nM. In addition, the Ki in series [2] was 156 nM. Further, in series [3], the GelA (Ki,app) was determined as 157 nM.

`CC(C)(C)[C@@H](CO)NC(=O)[C@@H](CC(=O)O)n1ccc(-c2ccc(-c3ccc(C(N)=O)cc3)cc2)c1` [Example 4(c), 3(R)-[3-(4′-Carbamoylbiphenyl-4-yl)-1H-pyrrol-1-yl]-N-(1(S)-hydroxymethyl-2,2-dimethyl-propyl)succinamic Acid] came in with a melting point of 192 to 194 °C. In addition, the Ki in series [1] was determined as 64 nM. Also, the Ki in series [2] came to 2530 nM. In addition, the GelA (Ki,app) in series [3] turned out to be 7.2 nM.

`CC(C)(O)C(CO)NC(=O)[C@@H](CC(=O)O)n1ccc(-c2ccc(-c3ccccc3)cc2)c1` (stereo in doubt) [Example 1(i), 3(R)-[3-(Biphenyl-4-yl)-1H-pyrrol-1-yl]-N-[2-hydroxy-1(S)-(hydroxymethyl)-2-methylpropyl]succinamic Acid] yielded a melting point of 150 to 152 °C. Moreover, the Ki in series [1] came to 113 nM. For the same compound, the GelA (Ki,app) in series [3] is 8 nM. The Ki in series [4] came to 89.6 nM.

Compound `O=C(C[C@H](C(=O)N[C@H]1Cc2cn(c3ccccc23)CCCCCCNC1=O)n1cccc1)NO` [Example 8(c), N ^4Hydroxy-N^1-(9-oxo-1,8-diaza-tricyclo[10.6.1.0^13,18]nonadeca-12(19),13,15,17-tetraen-10S-yl)-3(R)-1H-(pyrrol-1-yl)succinamide] came in with a melting point of 158 to 165 °C.

With `CCCc1ccc(-c2ccn([C@H](CC(=O)O)C(=O)N[C@H](C(=O)NC)C(C)(C)C)c2)cc1` [Example 1(j), N-[2,2-Dimethyl-1(S)-(methylcarbamoyl)propyl]-3(R)-[3-(4-propylphenyl)-1H-pyrrol-1-yl]succinamic Acid], the melting point was 104 to 106 °C. Also, the Ki in series [1] turned out to be 133 nM. In series [3], the GelA (Ki,app) was found to be 1.43 nM. In addition, the Ki in series [4] was found to be 9.43 nM.

With `O=C(O)C[C@H](C(=O)N[C@H](CO)Cc1ccccc1)n1ccc(-c2ccc(-c3ccccc3)cc2)c1` [1(a), N-(1(S)-Benzyl-2-hydroxyethyl)-3(R)-[3-(biphenyl-4-yl)-1H-pyrrol-1-yl]succinamic Acid], the values for the Ki in series [1], in series [2] and in series [4] were 65 nM, 1000 nM and 30 nM, respectively. The GelA (Ki,app) in series [3] was 5.4 nM.

Turning to `CC(C)(C)[C@H](NC(=O)[C@@H](CC(=O)O)n1ccc(-c2ccc(-c3ccc(C#N)cc3)cc2)c1)C(=O)Nc1ccncc1` (as salt: salt) [Example 5(d), 3(R)-[3-(4′-Cyanobiphenyl-4-yl)-1H-pyrrol-1-yl]-N-[2,2-dimethyl-1(S)-(pyridin-4-ylcarbamoyl)propyl]succinamic Acid Formate Salt], the melting point fell in the range of 134 to 136 °C.

As for `CC(C)C[C@H](NC(=O)[C@@H](CC(=O)O)c1ccn(-c2ccc(-c3ccc(C#N)cc3)cc2)c1)c1ncc[nH]1` [Example 14(c), 3(S)-[1-(4′-Cyanobiphenyl-4-yl)-1H-pyrrol-3-yl]-N-[1(S)-(1H-imidazol-2-yl)-3-methylbutyl]succinamic Acid], the melting point is 206 to 210 °C (dec.). Moreover, the Ki in series [1] was 17.7 nM. For the same compound, the GelA (Ki,app) in series [3] stood at 0.044 nM.

Take `CC(C)C[C@H](NC(=O)[C@@H](CC(=O)O)n1ccc(-c2ccc(-c3ccccc3)cc2)c1)C(C)O` (mixture of isomers) [Example 3]: the Ki in series [1] was found to be 150 nM; in series [2] it was 1250 nM; in series [4], 180 nM. The GelA (Ki,app) in series [3] is 58 nM.

In the case of `CCCC(C(=O)O)[C@H](C(=O)N[C@H](CO)Cc1ccccc1)n1ccc(-c2ccc(-c3ccc(C#N)cc3)cc2)c1` (mixture of isomers) [Example 10(b), 2(RS)-{1R-[1(S)-Benzyl-2-hydroxyethylcarbamoyl]-[3-(4′-cyano-biphenyl-4-yl)-1H-pyrrol-1-yl]-methyl}-pentanoic Acid], the Ki in series [1] was determined as 16 nM; in series [2] it was 510 nM; in series [4], 23.5 nM. Further, in series [3], the GelA (Ki,app) is 9.6 nM.

Turning to `O=C(O)C[C@H](C(=O)N[C@H](CO)Cc1ccccc1)n1cc(-c2ccc(-c3ccccc3)cc2)cn1` [Example 16, N-(1(S)-Benzyl-2-hydroxyethyl)-3(R)-[4-(biphenyl-4-yl)-pyrazol-1-yl]succinamic Acid], the melting point lay within 154 to 159 °C. In addition, the Ki in series [1] came out at 1500 nM. Further, in series [2], the Ki is 63000 nM. In addition, the GelA (Ki,app) in series [3] came out at 81 nM.

Regarding `CCC[C@H](C(=O)O)[C@H](C(=O)N[C@H](CO)Cc1ccccc1)n1ccc(-c2ccc(-c3ccccc3)cc2)c1` [Example 10(a), 2S-[1R-(1(S)-Benzyl-2-hydroxyethylcarbamoyl)-(3-biphenyl-4-yl-1H-pyrrol-1-yl)-methyl]-pentanoic Acid], the melting point was 179 to 181 °C (dec.). Besides, the Ki in series [2] amounted to 617 nM. Besides, the GelA (Ki,app) in series [3] was determined as 3.3 nM. In addition, the Ki in series [4] is 50 nM.

Values taken from patent US6495699B2, “Metalloproteinase inhibitors, pharmaceutical compositions containing them, and their use” (Agouron Pharmaceuticals Inc., priority 1996, dated 2002).
